Reference: US8603493B2, “Carbosilane dendrimers, preparation method thereof and use of same” (Dendrico, S.L., priority 2005, dated 2013)

Legend:
PBMC [1] = assay: Flow cytometry test (size and complexity; live cells vs apoptosis-necrosis); format: cell-based, human; settings: 72 hours, same concentrations as Trypan Blue test
Method: The evaluation time on this occasion was 72 hours. The toxicity was evaluated on PBMC, produced in the manner described in Example 38. […] The ODN used was PPT, in the following way: • [ODN PPT] in the complex with the CBS: 2.57 (0.88 μM) • [ODN PPT] in the complex with SF: 0.34 μM • [ODN PPT] in the complex with G4: 1 μM […] The cells were either incubated with said complexes, a mixture of equal volume which contained ODN without CBS, a mixture which contained dendrimer alone, or with a mixture which contained only RPMI+complete medium which was used as negative control. The cells and/or the supernatant were then collected to be analysed by flow cytometry, confocal microscopy or cell DNA extraction. The percentages of cells with size and complexity corresponding to cells in apoptosis-necrosis were compared with the live cells. For this, the size (FW) and the complexity (SD) was evaluated by flow cytometry. To do this, a region was drawn around the cells with FW and SD corresponding to cells in apoptosis-necrosis and another around the cells with FW and SD corresponding to live cells. The percentages of cells present in each slide were compared. The graphics produced are shown in FIG. 15, wherein the X-axis represents the size (FW) and the Y-axis the complexity (SD). […] The cloud of dark cells corresponds to cells in apoptosis necrosis. The live cells are represented in grey.

PBMC [2] = assay: Staining with Trypan Blue of PBMC treated with dendriplexes or dendrimers; settings: 72 hours, (+/−)=2/1, IM8 3.93 μM, IM16 1.99 μM, ClNH4 3.98 μM, Phe 1.96 μM, NN 3.94 μM, SF 0.68 μM, G4 100 μM, PPT 0.88 μM (0.34 μM with SF, 1 μM with G4), n = 100 cells per count
erythrocytes = assay: Haemolysis test (haemoglobin release after 1 hour); format: cell-based; settings: positive control, 0.2% Triton X-100
Method: A visual examination was carried out to detect the presence/absence of hemagglutination and quantification of haemoglobin release (haemolysis test) by spectrophotometry. ClNH4 was excluded from the dendrimers of previous Example 38, as the result had been more toxic for lymphocytes, and the results were compared with those produced for a PAMAN type generation 4 dendrimer.
The erythrocytes were obtained after being separated from the PBMC using the same Ficoll gradient cited in the previous Example. They were diluted in PBS to be able to view them individually. The cells were resuspended in 500 μl of PBS and were seeded in a 24-well plate (300,000/well). As positive control, cells treated with 0.2% Triton X-100 were used. Negative control: PBS (blank). The erythrocytes were incubated with different dendrimer concentrations. The presence of hemagglutination, number of cells and release of haemoglobin by hour were evaluated by collecting 100 μl of supernatant and measuring absorbencies by spectrophotometry using a plate reader at a wavelength of 550 nm and 690 nm as reference.
100% haemolysis in the control of Triton X-100 (the cells treated with Triton were all dead and broken). […] Each well is expressed as the percentage with respect to the O.D. (optical density) of Triton X-100, which is considered 100%; in addition to that percentage 7% of the control is subtracted. […]

PBMC [3] = assay: Lymphoproliferative test (tritiated thymidine); format: cell-based, human; settings: positive control, 1 μg/mL, 5 days, tested 12 times
Method: To evaluate the antigenic capacity of CBS dendrimers, a lymphoproliferative test was performed. The experiment was prepared in triplicate in a 96-well flat bottomed plate (100,000 cells per well in 200 μl of complete human AB medium with antibiotics, glutamine and 10% AB serum). […] After 5 days of incubation at 37° C. with 5% atmosphere of CO2 100 μl of supernatant was removed, then adding 100 μL of a medium with an isotopic intercalating agent of DNA, tritiated thymidine (prepared with 10% AB medium and Thymidine 1/100). The plate was then filtered using a Harvester passing its content through a filter, which was left to dry overnight (approx. 16 hours). After this period, a sheet of Methylex® containing scintillation medium was heat-melted, and it was read in a gamma camera to evaluate the number of counts (greater the counts, more proliferation). The results, which are shown below in Table 8, are expressed as tritiated thymidine counts per minute (cpm). Each result of each concentration was performed in triplicate, the value which appears in the table being the average of the 3. The PHA and the control were tested 12 times.

ODN = assay: Complex formation between CBS and ODN (agarose gel electrophoresis); format: binding; settings: 3% agarose gel, RPMI, excess positive charge (+/−) 2/1 and higher
Description: The oligonucleotidic sequences used were antisense sequences (complementary) directed against HIV RNA. The length varied from 15 to 28 bases, being of phosphorothioate nature. The specific ODN used and their sequences are shown below in Table 1.
Several of the ODN were used fluorescent at the 5′ end. This is indicated by adding the letter F to its notation. Thus, “GF” makes reference to the fluorescent anti-gag ODN at end 5′, whilst “RF” makes reference to the anti-Rev ODN fluorescent at end 5′.
Different agarose concentrations were used to show the migration of the ODN and the dendriplexes, bearing in mind the small size of the ODN used. Finally, a 3% agarose concentration in TAE 1× was chosen as the best. The migration of non-fluorescent ODNs was compared with fluorescent ones, both migrating at the same height but the latter increasing the signal perceived considerably. Using them, it thus avoided the isotopic labelling of the ODN. A double well was manufactured to prepare these gels, to permit load volumes of 60 μl, of which 50 μl was mixture volume of the samples in RPMI and 10 μl load buffer with glycerol. As size marker, a ladder of 100 base pairs was used (Gibco BRL®).
For the complex formations in all the tests performed, both on gels and on cells the ratio between the number of positive and negative charges in said complex was taken. As published by different authors in studies with PAMAM dendrimers, it is necessary that the complex formed has an excess positive charge to facilitate its binding to the cell membrane glycoproteins, negatively charged, thus starting the endocytosis process. Likewise, an excess of positive charge is added to ensure the formation of the dendrimer-DNA complex. Therefore, the complexes between the CBS dendrimers and the different nucleic acids were formed in excess number of positive charges (provided by the CBS) compared with negative charges (provided by the ODN). Nevertheless, different charge ratios were tested, making the calculations based in the number of dendrimer charges (fixed) and the number of negative charges of the ODN (also fixed). The 2/1 ratio of positive/negative charges was fixed as sufficient in all dendrimers to form the complexes with a total positive charge, although in some experiments a balance was provided of an equal number of negative charges as positive charges or excess negative charges.
In all the tests, a complex formation volume of 60 μl was used, using phenol red without RPMI serum as support medium.
Tests of complex formation were used with the dendrimers of the invention IM8, ClNH4, NN, Phe and IM16.
The synthesis process of the CBS used in this work begins from an initial nucleus of common structure, which is ended functionalizing in the periphery by the use of different functional groups, which are those which provide the positive charge to the dendrimer and determine the differences between themselves, the dendrimeric nucleus being of apolar nature. Since some of the bonds of the functional groups used to the dendrimeric nucleus could be unstable in aqueous solution, tests were performed to determine if the DNA retention in agarose gels and, therefore, the complex formation between the CBS and the DNA could be due to the total dendrimer structure being conserved or in contrast, the terminal functional groups came away from the moiety of the dendrimeric core which are responsible for the DNA retention. For this, gels were used in which complexes were formed between the ODNs and the integral CBS and those formed supposedly between the ODNs and the terminal functional groups with which the carbosilane skeleton had functionalized, in this case quaternized dimethylethanolamine. As has previously been commented, those positively charged molecules, which are bound to the dendrimer as terminal functional groups, are those which give the dendrimer its charge. As control, the mixtures of ODN-dendrimers, ODN-monomers and ODN alone were compared. […]

PPT: antisense phosphorothioate ODN against HIV mRNA, AATTTTCTTTTCGCCCCT (SEQ ID NO: 3), 18 bases [reference compound]
Apoptosis-necrosis (%) (PBMC [1]): 23%
Live cells (%) (PBMC [1]): 71%
TB+ (%), cells stained with Trypan Blue (PBMC [2]): 11.9%

Triton X-100
haemolysis (erythrocytes): 100%

phytohemagglutinin [PHA, reference compound]
Measurement of the scintillation counter (tritiated thymidine counts) (PBMC [3]): 10267 cpm

quaternized dimethylethanolamine [monomers, reference compound]
complex formation with ODN (retention of DNA migration in gel) (ODN): not being capable
